Results taken from patent publication US7820623B2 (priority 2006, dated 2010).
pIC50: −log10 of the molar value. Like-named read-outs stand apart in the source and are kept apart here. Bridge positions count the residues as written; N and C are the ends. Square brackets hold non-standard residues; d marks the D form. Peptide text beside a SMILES is read from it. 1Nal = N[C@@H](Cc1cccc2ccccc12)C(=O)O

How the values were obtained:
[1] = tested on: thapsigargin-induced IFN-g production in human whole blood; assay type: cell-based
[2] = tested on: thapsigargin-induced IL-2 production in human whole blood
[3] = read-out: Analogue Activity (IC50) WB/IFNg
[4] = read-out: Analogue Activity (IC50) WB/IL-2

Molecule: CC[C@H](C)[C@@H]1NC(=O)[C@H](CCCCN)NC(=O)[C@@H](NC(=O)[C@H](CCCCN)NC(=O)[C@@H](NC(=O)[C@H](CC(N)=O)NC(=O)[C@@H](NC(=O)[C@@H](NC(=O)[C@@H](NC(=O)CN)C(C)C)[C@@H](C)CC)[C@@H](C)CC)C(C)C)CSSC[C@@H]2NC(=O)[C@H](CCCCN)NC(=O)CNC(=O)[C@H](Cc3ccccc3)NC(=O)[C@H](CCCNC(=N)N)NC(=O)[C@H](C)NC(=O)CNC(=O)[C@H](C)NC(=O)[C@H](CCCCN)NC(=O)[C@H](CCCCN)NC(=O)[C@@H]3CSSC[C@@H](C(=O)N[C@H](C(=O)N4CCC[C@H]4C(=O)N[C@@H](CCCCN)C(=O)O)[C@@H](C)O)NC(=O)[C@H](Cc4c[nH]cn4)NC(=O)[C@H](CSSC[C@H](NC(=O)[C@H](CCC(N)=O)NC(=O)[C@H](CCCNC(=N)N)NC(=O)[C@H](CO)NC1=O)C(=O)N[C@@H](CC(C)C)C(=O)N[C@@H](CCC(=O)O)C(=O)N1CCC[C@H]1C(=O)N3)NC(=O)[C@H](CCCCN)NC(=O)CNC(=O)[C@H](CC(N)=O)NC(=O)[C@H](CCSC)NC2=O [M23A] (H-GVIINVKCKISRQCLEPCKKAGARFGKCMNGKCHCTPK-OH; disulfide 8-28, 14-33, 18-35)
- pIC50 [1, 3]: 9.56
- pIC50 [2, 4]: 9.56

Molecule: CC[C@H](C)[C@@H]1NC(=O)[C@H](CCCCN)NC(=O)[C@@H](NC(=O)[C@H](CCCCN)NC(=O)[C@@H](NC(=O)[C@H](CC(N)=O)NC(=O)[C@@H](NC(=O)[C@@H](NC(=O)[C@@H](NC(=O)CN)C(C)C)[C@@H](C)CC)[C@@H](C)CC)C(C)C)CSSC[C@@H]2NC(=O)[C@H](CCCCN)NC(=O)CNC(=O)[C@H](Cc3ccccc3)NC(=O)[C@H](CCCNC(=N)N)NC(=O)[C@H](CCSC)NC(=O)CNC(=O)[C@H](C)NC(=O)[C@H](CCCCN)NC(=O)[C@H](CCCCN)NC(=O)[C@@H]3CSSC[C@@H](C(=O)N[C@H](C(=O)N4CCC[C@H]4C(=O)N[C@@H](CCCCN)C(=O)O)[C@@H](C)O)NC(=O)[C@H](Cc4c[nH]cn4)NC(=O)[C@H](CSSC[C@H](NC(=O)[C@H](CCC(N)=O)NC(=O)[C@H](CCCNC(=N)N)NC(=O)[C@H](CO)NC1=O)C(=O)N[C@@H](Cc1cccc4ccccc14)C(=O)N[C@@H](CCC(=O)O)C(=O)N1CCC[C@H]1C(=O)N3)NC(=O)[C@H](CCCCN)NC(=O)CNC(=O)[C@H](CC(N)=O)NC(=O)[C@H](CCSC)NC2=O [L15Nal] (H-GVIINVKCKISRQC[1Nal]EPCKKAGMRFGKCMNGKCHCTPK-OH; disulfide 8-28, 14-33, 18-35)
- pIC50 [1, 3]: 9.43
- pIC50 [2, 4]: 9.45

Molecule: CC[C@H](C)[C@@H]1NC(=O)[C@H](CCCCN)NC(=O)[C@@H](NC(=O)[C@H](CCCCN)NC(=O)[C@H](CCCNC(=N)N)NC(=O)[C@H](CC(N)=O)NC(=O)[C@@H](NC(=O)[C@@H](NC(=O)[C@@H](NC(=O)CN)C(C)C)[C@@H](C)CC)[C@@H](C)CC)CSSC[C@@H]2NC(=O)[C@H](CCCCN)NC(=O)CNC(=O)[C@H](Cc3ccccc3)NC(=O)[C@H](CCCNC(=N)N)NC(=O)[C@H](CCSC)NC(=O)CNC(=O)[C@H](C)NC(=O)[C@H](CCCCN)NC(=O)[C@H](CCCCN)NC(=O)[C@@H]3CSSC[C@@H](C(=O)N[C@H](C(=O)N4CCC[C@H]4C(=O)N[C@@H](CCCCN)C(=O)O)[C@@H](C)O)NC(=O)[C@H](Cc4c[nH]cn4)NC(=O)[C@H](CSSC[C@H](NC(=O)[C@H](CCC(N)=O)NC(=O)[C@H](CCCNC(=N)N)NC(=O)[C@H](CO)NC1=O)C(=O)N[C@@H](CC(C)C)C(=O)N[C@@H](CCC(=O)O)C(=O)N1CCC[C@H]1C(=O)N3)NC(=O)[C@H](CCCCN)NC(=O)CNC(=O)[C@H](CC(N)=O)NC(=O)[C@H](CCSC)NC2=O [V6R] (H-GVIINRKCKISRQCLEPCKKAGMRFGKCMNGKCHCTPK-OH; disulfide 8-28, 14-33, 18-35)
- pIC50 [1, 3]: 9.94
- pIC50 [2, 4]: 10.08

Molecule: E16K, K20D, H34A (GVIINVKCKISRQCLKPCKDAGMRFGKCMNGKCACTPK)
- pIC50 ([1]; read-out: WB/IFNg (IC50)): 7.57
- pIC50 ([2]; read-out: WB/IL-2 (IC50)): 7.18

Molecule: CC[C@H](C)[C@@H]1NC(=O)[C@H](CCCCN)NC(=O)[C@@H](NC(=O)[C@H](CCCCN)NC(=O)[C@@H](NC(=O)[C@H](CC(N)=O)NC(=O)[C@@H](NC(=O)[C@@H](NC(=O)[C@@H](NC(=O)CN)C(C)C)[C@@H](C)CC)[C@@H](C)CC)C(C)C)CSSC[C@@H]2NC(=O)[C@H](CCCCN)NC(=O)CNC(=O)[C@H](Cc3ccccc3)NC(=O)[C@H](CCCNC(=N)N)NC(=O)[C@H](CCSC)NC(=O)CNC(=O)[C@H](C)NC(=O)[C@H](CCCCN)NC(=O)[C@H](CCCCN)NC(=O)[C@@H]3CSSC[C@@H](C(=O)N[C@H](C(=O)N4CCC[C@H]4C(=O)N[C@@H](CCCCN)C(=O)O)[C@@H](C)O)NC(=O)[C@H](Cc4c[nH]cn4)NC(=O)[C@H](CSSC[C@H](NC(=O)[C@H](CCC(N)=O)NC(=O)[C@H](CCCNC(=N)N)NC(=O)[C@H](CO)NC1=O)C(=O)N[C@@H](CC(C)C)C(=O)N[C@@H](CCC(=O)O)C(=O)N1CCC[C@H]1C(=O)N3)NC(=O)[C@H](CCCNC(=N)N)NC(=O)CNC(=O)[C@H](CC(N)=O)NC(=O)[C@H](CCSC)NC2=O [K32R] (H-GVIINVKCKISRQCLEPCKKAGMRFGKCMNGRCHCTPK-OH; disulfide 8-28, 14-33, 18-35)
- pIC50 [1, 3]: 10.47
- pIC50 [2, 4]: 10.55

Molecule: GVIINVKCKISRQCLEPCKKAGMRFGKCMNGKCACTPK [Ala-34 (SEQ ID No: 1428)]
- pIC50 ([1]; read-out: Average IC50 IFNg): 10.24
- pIC50 ([2]; read-out: Average IC50 IL-2): 10.14

Molecule: CC[C@H](C)[C@@H]1NC(=O)[C@H](CCCCN)NC(=O)[C@@H](NC(=O)[C@H](CCCCN)NC(=O)[C@@H](NC(=O)[C@H](CC(N)=O)NC(=O)[C@@H](NC(=O)[C@@H](NC(=O)[C@@H](NC(=O)CN)C(C)C)[C@@H](C)CC)[C@@H](C)CC)C(C)C)CSSC[C@@H]2NC(=O)[C@H](CCCCN)NC(=O)CNC(=O)[C@H](Cc3ccccc3)NC(=O)[C@H](CCCNC(=N)N)NC(=O)[C@H](CCSC)NC(=O)CNC(=O)[C@H](C)NC(=O)[C@H](CCCCN)NC(=O)[C@H](CCCCN)NC(=O)[C@@H]3CSSC[C@@H](C(=O)N[C@H](C(=O)N4CCC[C@H]4C(=O)N[C@@H](CCCCN)C(=O)O)[C@@H](C)O)NC(=O)[C@H](Cc4c[nH]cn4)NC(=O)[C@H](CSSC[C@H](NC(=O)[C@H](CCC(N)=O)NC(=O)[C@H](CCCNC(=N)N)NC(=O)[C@H](CO)NC1=O)C(=O)N[C@@H](CCCNC(=N)N)C(=O)N[C@@H](CCC(=O)O)C(=O)N1CCC[C@H]1C(=O)N3)NC(=O)[C@H](CCCCN)NC(=O)CNC(=O)[C@H](CC(N)=O)NC(=O)[C@H](CCSC)NC2=O [L15R] (H-GVIINVKCKISRQCREPCKKAGMRFGKCMNGKCHCTPK-OH; disulfide 8-28, 14-33, 18-35)
- pIC50 [1, 3]: 9.94
- pIC50 [2, 4]: 10.03

Molecule: GVIINAKCKISRQCLEPCKKAGMRFGKCMNGKCHCTPK [Ala-6 (SEQ ID No: 1405)]
- pIC50 ([1]; read-out: Average IC50 IFNg): 10.09
- pIC50 ([2]; read-out: Average IC50 IL-2): 10.13

Molecule: R12A, E16K, K20D (GVIINVKCKISAQCLKPCKDAGMRFGKCMNGKCHCTPK)
- pIC50 ([1]; read-out: WB/IFNg (IC50)): 10.04
- pIC50 ([2]; read-out: WB/IL-2 (IC50)): 10.39

Molecule: CC[C@H](C)[C@@H]1NC(=O)[C@H](CCCCN)NC(=O)[C@@H](NC(=O)[C@H](CCCCN)NC(=O)[C@@H](NC(=O)[C@H](CC(N)=O)NC(=O)[C@@H](NC(=O)[C@@H](NC(=O)[C@@H](NC(=O)CN)C(C)C)[C@@H](C)CC)[C@@H](C)CC)C(C)C)CSSC[C@@H]2NC(=O)[C@H](CCCCN)NC(=O)CNC(=O)[C@H](Cc3ccccc3)NC(=O)[C@H](Cc3cccc4ccccc34)NC(=O)[C@H](CCSC)NC(=O)CNC(=O)[C@H](C)NC(=O)[C@H](CCCCN)NC(=O)[C@H](CCCCN)NC(=O)[C@@H]3CSSC[C@@H](C(=O)N[C@H](C(=O)N4CCC[C@H]4C(=O)N[C@@H](CCCCN)C(=O)O)[C@@H](C)O)NC(=O)[C@H](Cc4c[nH]cn4)NC(=O)[C@H](CSSC[C@H](NC(=O)[C@H](CCC(N)=O)NC(=O)[C@H](CCCNC(=N)N)NC(=O)[C@H](CO)NC1=O)C(=O)N[C@@H](CC(C)C)C(=O)N[C@@H](CCC(=O)O)C(=O)N1CCC[C@H]1C(=O)N3)NC(=O)[C@H](CCCCN)NC(=O)CNC(=O)[C@H](CC(N)=O)NC(=O)[C@H](CCSC)NC2=O [R24Nal] (H-GVIINVKCKISRQCLEPCKKAGM[1Nal]FGKCMNGKCHCTPK-OH; disulfide 8-28, 14-33, 18-35)
- pIC50 [1, 3]: 9.09
- pIC50 [2, 4]: 9.53

Molecule: CC[C@H](C)[C@@H]1NC(=O)[C@H](CCCCN)NC(=O)[C@@H](NC(=O)[C@H](CCCCN)NC(=O)[C@@H](NC(=O)[C@H](CC(N)=O)NC(=O)[C@@H](NC(=O)[C@H](CCCNC(=N)N)NC(=O)[C@@H](NC(=O)CN)C(C)C)[C@@H](C)CC)C(C)C)CSSC[C@@H]2NC(=O)[C@H](CCCCN)NC(=O)CNC(=O)[C@H](Cc3ccccc3)NC(=O)[C@H](CCCNC(=N)N)NC(=O)[C@H](CCSC)NC(=O)CNC(=O)[C@H](C)NC(=O)[C@H](CCCCN)NC(=O)[C@H](CCCCN)NC(=O)[C@@H]3CSSC[C@@H](C(=O)N[C@H](C(=O)N4CCC[C@H]4C(=O)N[C@@H](CCCCN)C(=O)O)[C@@H](C)O)NC(=O)[C@H](Cc4c[nH]cn4)NC(=O)[C@H](CSSC[C@H](NC(=O)[C@H](CCC(N)=O)NC(=O)[C@H](CCCNC(=N)N)NC(=O)[C@H](CO)NC1=O)C(=O)N[C@@H](CC(C)C)C(=O)N[C@@H](CCC(=O)O)C(=O)N1CCC[C@H]1C(=O)N3)NC(=O)[C@H](CCCCN)NC(=O)CNC(=O)[C@H](CC(N)=O)NC(=O)[C@H](CCSC)NC2=O [I3R] (H-GVRINVKCKISRQCLEPCKKAGMRFGKCMNGKCHCTPK-OH; disulfide 8-28, 14-33, 18-35)
- pIC50 [1, 3]: 9.74
- pIC50 [2, 4]: 9.83
